According to US20110091570A1, “Compositions and Devices for Antisepsis and Anticoagulation” (priority 2008, published 2011):
Where “and” joins values, the source holds several entries; their conditions need not be identical. Equal values may be shown once.

Tests used:
[1] = system: Staphylococcus epidermidis; assay: Bactericidal activity of NCT without and with heparin (CFU counts); assay type: cell-based
citrate blood [2] = assay: Thrombin time (TT), BC Thrombin Reagent test; assay type: biochemical, human; conditions: for TT / TT (sec): Example 6, single volunteer; for Thrombin time (TT) / Thrombin time (TT), mean value: Example 7; for Thrombin time (TT): individual subjects; for Thrombin time (TT), mean value: mean of 11 subjects
Protocol: (§1) Whole blood was taken from volunteers and enriched with trisodium citrate (0.3 mL of a 0.106 molar solution per 3 mL whole blood) (S-Monovette®, Sarstedt, Nümbrecht, Germany). Routine coagulation tests were performed on the following samples:
(§2) The following commercial coagulation tests were performed according to the prescription of the manufacturer: prothrombin time (PT) was determined using Thromborel® S test (Dade Behring GmbH, Marburg, Germany); activated partial thromboplastin time (aPTT) was determined using Pathromtin* SL test (Dade Behring GmbH, Marburg, Germany); and thrombin time (TT) was determined using BC Thrombin Reagent test (Dade Behring GmbH, Marburg, Germany).
(§3) Whole blood was taken from a single volunteer and enriched with trisodium citrate (0.3 mL of a 0.106 molar solution per 3 mL whole blood) (S-Monovette®, Sarstedt, Nümbrecht, Germany). Portions of 1.8 mL citrate blood were mixed with 0.2 mL NCT in 0.9% saline. The following final (after dilution in blood) NCT concentrations were tested separately: 1% (55 mM); 0.5% (27.5 mM); 0.25% (13.75 mM); 0.1% (5.5 mM); 0.05% (2.75 mM); 0.025% (1.375 mM); and 0.01% (0.55 mM). A control without NCT was performed in parallel. The following commercial coagulation tests were performed according to the prescription of the manufacturer: prothrombin time (PT) was determined using Thromborel® S test (Dade Behring GmbH, Marburg, Germany), activated partial thromboplastin time (aPTT) was determined using Pathromtin* SL test (Dade Behring GmbH, Marburg, Germany); thrombin time (TT) was determined using BC Thrombin Reagent test (Dade Behring GmbH, Marburg, Germany); and fibrinogen was determined using Multifibren* U test (Dade Behring GmbH, Marburg, Germany).
(§4) Whole blood was taken from 11 volunteers and enriched with trisodium citrate (0.3 mL of a 0.106 molar solution per 3 mL whole blood) (S-Monovette®, Sarstedt, Nümbrecht, Germany). Commercial coagulation tests (as described in Example 6) were performed with the following samples: […]

[3] = system: Escherichia coli, ATCC 11229; assay: Bactericidal activity of NCT with heparin in human whole blood; assay type: cell-based; conditions: 37° C.
Protocol: FIG. 11 presents a plot of bactericidal activity of 1% NCT with 125 IE/mL heparin in human blood against Escherichia coli (ATCC 11229) at pH 7.1 and 37° C. Mean values±standard error of the mean of three independent experiments. P<0.01 between NCT and control samples.
Bacteria (Staphylococcus aureus, ATCC 25923 and Escherichia coli, ATCC 11229) grown in tryptic soy broth overnight were washed twice in saline and suspended in human whole blood containing 125 IE/mL heparin. Different volumes of a saline solution of NCT sodium salt were added to the suspension so that the test samples contained 10%, 25%, 50%, and 75% blood. In addition, 100% blood plus 125 IE/mL heparin was tested at which NCT was directly dissolved in blood. The final NCT concentration after mixing blood and NCT solutions was 1% in all samples. Controls contained 100% blood plus 125 IE/mL heparin and 10%, 25%, 50% and 75% blood, respectively, in saline, plus 125 IE/mL heparin without NCT. All of the solutions were incubated at 37° C. and pH 7.36-7.44 (the pH of blood). After 1, 3, 5, 10, 15, 30, 45 and 60 minutes, aliquots of 100 μL were removed and diluted tenfold or 100-fold in 0.6% sodium thiosulfate solution to inactivate the NCT. Aliquots (50 μL) of these dilutions were spread on tryptic soy agar plates. The plates were incubated at 37° C. and colony forming units of bacteria were counted after 24 and 48 hours. […]

Antithrombin III = Antithrombin III in citrate blood; assay type: biochemical, human; conditions: Example 7; for Antithrombin III: individual subjects 1-11; for Antithrombin III, mean value: mean of 11 subjects
Protocol: as §4

Staphylococcus aureus = conditions: local administration, mouse model [Ref 21]; cited from earlier work
citrate blood [4] = assay: Prothrombin time (PT), Thromborel S test; assay type: biochemical, human; conditions: for PT (%): Example 6, single volunteer; for Prothrombin time (PT) / Prothrombin time (PT), mean value: Example 7; for Prothrombin time (PT): individual subjects 1-11; for Prothrombin time (PT), mean value: mean of 11 subjects
Protocol: as §1, §2, §3, §4

D-Dimer = D-Dimer in citrate blood; assay type: biochemical, human; conditions: Example 7; for D-Dimer: individual subjects 1-11; for D-Dimer, mean value: mean of 11 subjects
Protocol: as §4

[5] = Example 5, 1% NCT final concentration in citrate blood

O=S(=O)(O)CCNCl [NCT, N-chlorotaurine]
influence of heparin on the killing of bacteria ([1]; 0.1% NCT, virtually identical experiments): no statistically significant influence of heparin on the killing of bacteria | killing activity of NCT with vs without heparin ([1]; 1% NCT, 125 IE/mL heparin, pH 7.1, 37° C., 1-10 min): no difference in the killing activity | thrombin time (citrate blood [2]; [5]): above the test limits | TT (citrate blood [2]; 0.01% (0.55 mM) NCT final): 19.5 s | TT (citrate blood [2]; 0.025% (1.375 mM) NCT final): 26.6 s | TT (citrate blood [2]; 0.05% (2.75 mM) NCT final): 48.8 s | TT (citrate blood [2]; 0.1% (5.5 mM) NCT final): 92.2 s | TT (citrate blood [2]; 0.25% (13.75 mM) NCT final): 101.8 s | TT (sec) (citrate blood [2]; 0.5% (27.5 mM) NCT final): >limit | TT (sec) (citrate blood [2]; 1% (55 mM) NCT final): >limit | Thrombin time (TT) (citrate blood [2]; 0.01% NCT): 22 sec (5×) and 24 sec (2×) and 32 sec and 23 sec (3×) | Thrombin time (TT), mean value (citrate blood [2]; 0.01% NCT): 23.5 s | Thrombin time (TT) (citrate blood [2]; 0.025% NCT): 44 sec (2×) and 39 sec and 59 sec and 43 sec and 52 sec and 55 sec and 48 sec and 40 sec and 45 sec and 35 sec | Thrombin time (TT), mean value (citrate blood [2]; 0.025% NCT): 45.8 s | bactericidal activity in blood ([3]; 1% NCT dissolved in 100% blood plus 125 IE/mL heparin): no significant bactericidal activity was detected | bactericidal activity in blood ([3]; 1% NCT in 10%, 25%, 50% and 75% blood plus 125 IE/mL heparin): demonstrated bactericidal activity | Antithrombin III (Antithrombin III; 0.01% NCT): 92% and 79% and 101% and 85% and 82% and 81% and 94% and 75% and 95% and 80% and 84% | Antithrombin III, mean value (Antithrombin III; 0.01% NCT): 86.2% | Antithrombin III (Antithrombin III; 0.025% NCT): 90% and 81% and 101% and 79% (3×) and 80% and 87% and 73% and 94% and 78% | Antithrombin III, mean value (Antithrombin III; 0.025% NCT): 83.7% | effect on septic arthritis (Staphylococcus aureus): inhibited septic arthritis | prothrombin time (citrate blood [4]; [5]): above the test limits | PT (%) (citrate blood [4]; 0.01% (0.55 mM) NCT final): 91.4% | PT (%) (citrate blood [4]; 0.025% (1.375 mM) NCT final): 70.6% | PT (%) (citrate blood [4]; 0.05% (2.75 mM) NCT final): 33.4% | PT (%) (citrate blood [4]; 0.1% (5.5 mM) NCT final): <limit | PT (%) (citrate blood [4]; 0.25% (13.75 mM) NCT final): <limit | PT (%) (citrate blood [4]; 0.5% (27.5 mM) NCT final): <limit | PT (%) (citrate blood [4]; 1% (55 mM) NCT final): <limit | Prothrombin time (PT) (citrate blood [4]; 0.01% NCT): 70% and 59% and 95% and 62% and 88% and 61% and 86% and 72% and 77% and 74% and 79% | Prothrombin time (PT), mean value (citrate blood [4]; 0.01% NCT): 74.8% | Prothrombin time (PT) (citrate blood [4]; 0.025% NCT): 28% and 20% and 50% and 10% and 21% and 16% (2×) and 25% and 36% and 24% and 32% | Prothrombin time (PT), mean value (citrate blood [4]; 0.025% NCT): 25.3% | D-Dimer (D-Dimer; 0.01% NCT): 209 µg/L and 195 µg/L and 340 µg/L and 143 µg/L and 50 µg/L and 174 µg/L and 241 µg/L and 155 µg/L and 132 µg/L and 191 µg/L and 149 µg/L | D-Dimer, mean value (D-Dimer; 0.01% NCT): 179.9 µg/L | D-Dimer (D-Dimer; 0.025% NCT): 200 µg/L and 179 µg/L and 316 µg/L and 122 µg/L and 50 µg/L and 153 µg/L and 227 µg/L and 143 µg/L and 126 µg/L and 172 µg/L and 132 µg/L | D-Dimer, mean value (D-Dimer; 0.025% NCT): 165.5 µg/L
